From PubChem BioAssay (NCI)
Several values for one entry are separate records, joined by “and”; a condition that tells them apart may be missing. Equal values may be shown once.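 Growth conditions: 96-well plates. Treatment: test compound, 48 hours, 5 concentrations. Analysis: linear interpolation between bracketing concentrations; unreached endpoints set to highest concentration. Here, GI50 denotes the concentration required for 50% inhibition of growth. At the TGI there is no net growth.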 Residues, ends and D or L forms follow the SMILES beside them. *: point of attachment. Cbz = O=C(OCc1ccccc1)*

How the values were obtained:
Experiment in all cases: growth of human tumour cells (NCI), 48 h
[1] = system: DU-145 prostate
[2] = system: HCT-15 colon
[3] = system: OVCAR-5 ovarian
[4] = system: OVCAR-8 ovarian
[5] = system: RXF 393 renal
[6] = system: SK-MEL-2 melanoma
[7] = system: SK-OV-3 ovarian
[8] = system: SN12C renal
[9] = system: TK-10 renal
[10] = system: UACC-257 melanoma

Row | SMILES | GI50 [1] | TGI [1] [µM] | GI50 [2] | TGI [2] [µM] | GI50 [3] | TGI [3] [µM] | GI50 [4] | TGI [4] [µM] | GI50 [5] | TGI [5] | GI50 [6] | TGI [6] [µM] | GI50 [7] | TGI [7] [µM] | GI50 [8] | TGI [8] [µM] | GI50 [9] | TGI [9] [µM] | GI50 [10] | TGI [10] [µM]
1 | CC(C)C[C@@H](C=O)NC(=O)[C@H](CC(C)C)NC(=O)[C@H](CC(C)C)NC(=O)OCc1ccccc1 (Cbz-Leu-Leu-Leu-aldehyde) | 0.53 µM | 10.6 | 0.465 µM | 10.2 | 0.643 µM | 4.74 | 0.523 µM | 4.66 | 0.199 µM | 0.371 µM | 0.483 µM | 3.28 | 0.614 µM | 5.34 | 0.315 µM | 1.01 | 0.27 µM | 0.893 | 0.251 µM | 0.628
2 | CC1Cc2ccccc2N1C(=O)Cc1nc(N2CCOCC2)cc(=O)[nH]1 (stereo not given) | 15.8 µM and 28.1 µM | > 100 | 16.1 µM and 27.7 µM | > 100 | 9.09 µM and 18.2 µM | > 100 | 34.8 µM and 32 µM | > 100 | 0.277 µM and 1.4 µM | 8.17 µM and 16.2 µM | 37.1 µM and 49.5 µM | > 100 | 4.9 µM and 13.3 µM | > 100 | 9.39 µM and 13.9 µM | > 100 | 14.5 µM and 32.1 µM | > 100 | 15.9 µM and 20.2 µM | > 100
3 | Cc1ccc(OCCOCCOCCOCCOCCOc2ccc(C)n(O)c2=S)c(=S)n1O | 0.124 µM | > 100 | 0.0392 µM | > 100 | 0.0634 µM | > 100 | 0.0384 µM | > 100 | 0.327 µM | 17.1 µM | 4.81 µM | 40.5 | 0.0583 µM | > 48 | 0.0496 µM | > 100 | 0.0826 µM | > 100 | 0.0425 µM | > 66.4
4 | Cn1c(=O)c(Oc2ccc(F)cc2F)cc2cnc(NC3CCOCC3)nc21 | > 25 µM | > 25 | > 25 µM | > 25 | > 25 µM | > 25 | > 25 µM | > 25 | 24.3 µM | > 25 µM | > 25 µM | > 25 | > 25 µM | > 25 | > 25 µM | > 25 | 18.6 µM | > 25 | > 25 µM | > 25
5 | CC/C=C\C[C@H](O)C/C=C1/C(=O)C=C[C@@H]1C/C=C\CCCCO | 4 µM | 15.2 | 1.58 µM | 4.57 | 3.25 µM | 8.95 | 3.24 µM | 11.9 | 2.25 µM | 4.18 µM | 5.96 µM | 22.6 | 5.08 µM | 29.2 | 2.52 µM | 6.53 | 3.31 µM | 9.22 | 2.59 µM | 9.36
6 | COc1cc(C2CC(=O)Nc3c2c(C)nn3-c2nc3ccccc3[nH]2)cc(OC)c1O (stereo not given) | 4.98 µM | 40.3 | 3.69 µM | > 100 | 11.6 µM | 30.4 | 3.4 µM | > 32.1 | 2.17 µM | 5.14 µM | 2.23 µM | 4.52 | 2.7 µM | 5.9 | 3.98 µM | > 72.3 | 2.84 µM | 7.67 | 2.98 µM | > 24.5
7 | N#CC1=C(N)Oc2c(sc3c(Br)cccc23)C1c1ccc(Cl)cc1 (stereo not given) | 0.533 µM | 3.29 | 0.403 µM | 2.25 | 1.91 µM | 5.98 | 1.71 µM | 8.29 | 0.553 µM | 3.01 µM | 0.672 µM | 12.3 | 0.464 µM | 11.6 | 2.88 µM | 17.6 | 3.47 µM | 12.8 | 1.73 µM | 22.7
8 | O=[N+]([O-])c1ccc2c(c1)C(c1ccccc1Cl)=Nc1c(n[nH]c1-c1cccnc1)N2 | > 25 µM | > 25 | > 25 µM | > 25 | > 25 µM | > 25 | > 25 µM | > 25 | > 25 µM | > 25 µM | > 25 µM | > 25 | > 25 µM | > 25 | > 25 µM | > 25 | > 25 µM | > 25 | > 25 µM | > 25
9 | CC(C)Cc1ccc(C(C)C(=O)NCc2ccc(Cn3c(=O)sn(CCCI)c3=O)cc2)cc1 (stereo not given) | 0.861 µM | 2.12 | 0.237 µM | 0.738 | 1.39 µM | 2.84 | 0.523 µM | 1.85 | 0.326 µM | 1.33 µM | 1.34 µM | 2.88 | 2.88 µM | 8.23 | 0.646 µM | 1.97 | 0.373 µM | 0.95 | 1.28 µM | 2.7
10 | C=C1C(=O)O[C@H]2[C@H]1CC/C(CNC(=O)/C=C/c1ccccc1F)=C\CC[C@@]1(C)O[C@@H]21 | 1.03 µM | 2.26 | 1.01 µM | 2.49 | 1.9 µM | 5.15 | 2.95 µM | 11.8 | 1.24 µM | 2.7 µM | 1.7 µM | 3.52 | 13.1 µM | 28.3 | 1.62 µM | 4.41 | 1.66 µM | 3.25 | 1.77 µM | 3.59
11 | COC(=O)c1oc2c(C(=O)/C=C/c3ccc(OC)cc3)c(OCCN3CCOCC3)ccc2c1C | 1.75 µM | 4.24 | 1.46 µM | 3.12 | 2.38 µM | 6.68 | 1.8 µM | 4.7 | 0.0487 µM | 0.493 µM | 1.32 µM | 3.15 | 2.92 µM | 8.61 | 1.78 µM | 5.91 | 3.31 µM | 11.9 | 1.99 µM | 4.25
12 | CN1C(=O)C2(c3ccccc31)C1CC3C(CO1)C1C2C3(CO)CN1C#N (stereo not given) | – | > 100 | – | > 100 | – | > 100 | – | > 100 | – | > 100 µM | – | > 100 | – | > 100 | – | > 100 | – | > 100 | – | > 100
13 | O=C1CC(N2C(=O)/C(=C/C(Cl)=C\c3ccc([N+](=O)[O-])cc3)SC2=S)C(=O)N1c1ccc(O)cc1 (stereo not given) | 1.72 µM | 3.37 | 0.472 µM | 1.95 | 1.91 µM | 3.69 | 2.16 µM | 14.2 | 1.53 µM | 3.22 µM | 2.74 µM | 7.83 | 2.99 µM | 9.26 | 1.6 µM | 5.88 | 1.92 µM | 3.79 | 2.48 µM | 9.12
14 | NC(N)=Nc1ccc(/C=C2\C=Cc3ccccc32)cc1 | 2.36 µM | 5.03 | 2.13 µM | 4.55 | 2.61 µM | 6.77 | 2.22 µM | 5.67 | 2.14 µM | 5.52 µM | 4.83 µM | 11.6 | 6.14 µM | 22.9 | 2.95 µM | 13.2 | 2.02 µM | 4.04 | 4.99 µM | 18.3
15 | N#Cc1c(N/N=C\c2ccc(Cl)cc2)nc(N)nc1N1CCOCC1 | 28.8 µM | > 100 | 26.7 µM | 97.3 | > 100 µM | > 100 | 31.4 µM | > 100 | 15 µM | > 100 µM | 99.2 µM | > 100 | > 100 µM | > 100 | 55.1 µM | > 100 | 40.1 µM | > 100 | 32.2 µM | > 100
16 | COC(=O)CNc1nc(N(C)O)nc(N(C)O)n1 | 2.15 µM | 45 | 0.551 µM | > 100 | 9.24 µM | > 100 | 3.31 µM | > 100 | 4.85 µM | > 100 µM | 3.45 µM | 25.7 | 10.3 µM | > 100 | 9.17 µM | > 100 | 1.61 µM | > 100 | 11.6 µM | 80.3
17 | Cc1ccccc1C(C(=O)NC1CCCCC1)N(C(=O)CNc1ccc(C#N)cc1)c1cccc(F)c1 (stereo not given) | 64.4 µM | > 100 | > 100 µM | > 100 | 46.6 µM | > 100 | 10.6 µM | > 100 | 1.84 µM | 5.6 µM | 13.1 µM | 32.5 | 12.9 µM | 52.8 | 29.7 µM | > 100 | 24 µM | 71.7 | 50 µM | > 100
